In patent US20180110803A1, “Neutral Electrolyzed Water and Uses Thereof” (priority 2016, published 2018):

Tested on: Wistar rats
Experiment: formalin model of inflammatory pain
Assay type: in vivo
Details: 100 mg/paw subcutaneous, 5 minutes before formalin

For O=C(c1ccccc1)c1ccc2n1CCC2C(=O)O (stereo not shown) [Ketorolac, ketorolac], the “reduction of inflammatory pain (nociceptive response)” value was ~50%.
